One may read the IC50 as the concentration that inhibits the measured activity by half.

These results are taken from patent US7268150B2, “2-cyano-4-fluoropyrrolidine derivative or its salt” (Yamanouchi Pharmaceutical Co., Ltd., priority 2002, dated 2007).

In one assay the target is T1, DPP-IV (Homo sapiens, UniProt P27487).
T1 construct: added was 5 μL of plasma collected from healthy adult volunteers; from tissue; host or cells: plasma of healthy adult volunteers
Description: Test for determination of DPP-IV inhibiting activity (Gly-Pro-AMC cleavage by human plasma). The format is biochemical. On the procedure: (1) Test for Determination of DPP-IV Inhibiting Activity:
The reaction was performed in a 96-well flat-bottom microtiter plate. A varying concentration of the test compound was added to an aqueous solution comprised of 25 mM Tris-HCl, 140 mM sodium chloride, 10 mM potassium chloride, 1% RIA-grade bovine serum albumin, and 0.01 mM Gly-Pro-AMC (Bachem). To this reaction solution (95 μL/well), added was 5 μL of plasma collected from healthy adult volunteers, and incubated at room temperature for 20 minutes. […] The data of 3 wells under the same conditions were averaged.
The inhibition in the test group, relative to the solvent-added group was calculated, and the IC50 value thereof was obtained through logistic analysis.

The target in assay [1] is T2, plasma DPP-IV (Mus musculus, UniProt P28843).
T2 construct: The collected blood was immediately centrifuged to isolate the plasma; from tissue; host or cells: plasma of male ICR mice (Nippon SLC)
As to the kind of experiment: Test for DPP-IV inhibiting activity duration in mice. The class given is in vivo. As to conditions: po. How it is done: (2) Test for DPP-IV Inhibiting Activity Duration in Mice:
(§1) Male ICR mice (Nippon SLC) were grouped into a test group and a control group of 5 subjects each. A test compound (10 mg/kg) was dissolved in purified water, and orally administered. Purified water alone was orally administered to the mice of the control group. One half, 6, and 12 hours after the administration, the blood was collected from each mouse through the orbital venous plexus thereof. The collected blood was immediately centrifuged to isolate the plasma, and the DPP-IV activity of the plasma was measured.
(§2) The process of plasma DPP-IV activity determination was as follows: The reaction was performed in a 96-well plate. 5 μl of the collected plasma was added to an aqueous solution (95 μl/well) comprises 25 mM Tris-HCl, 140 mM sodium chloride, 10 mM potassium chloride, 1% bovine serum albumin, and 0.01 mM Gly-Pro-AMC (Bachem), and incubated at room temperature for 20 minutes.
The fluorescent intensity of the well, to which was added the plasma collected from the control group, was 100%. Based on it, the DPP-IV activity of the plasma collected from the test compound-administered mice was calculated, and the activity difference between the control group and the test group was obtained. This indicated the inhibition in the test group.

Assay [2] has as its target T3, plasma DPP-IV (Rattus norvegicus, UniProt P14740).
T3 construct: The collected blood was immediately centrifuged to isolate the plasma; from tissue; host or cells: plasma of male SD rats (Clea Japan)
Description: Test for DPP-IV inhibiting activity duration in rats. The format is in vivo. Particulars: po. On the procedure: as §2
(3) Test for DPP-IV Inhibiting Activity Duration in Rats:
as §1, with “SD rats (Clea Japan)” for “ICR mice (Nippon SLC)”, “rats” for “mice”, “rat” for “mouse”, “tail vein” for “orbital venous plexus”, “measured according to the same process as in the dipeptidyl peptidase-IV (DPP-IV) inhibiting activity duration test shown in (2).” for “measured.”
The fluorescent intensity of the well, to which was added the plasma collected from the control group, was 100%. Based on it, the DPP-IV activity of the plasma collected from the test compound-administered rats was calculated, and the activity difference between the control group and the test group was obtained. This indicated the inhibition in the test group.

The mark [3] stands for this setting: plasma from healthy adult volunteers, 0.01 mM Gly-Pro-AMC, room temperature, 20 minutes, read-out: IC50 (DPP-IV inhibiting activity).
[4] abbreviates: male ICR mice, 10 mg/kg orally, 12 h after administration, relative to control group, read-out: inhibition of plasma DPP-IV activity after 12 h.
The mark [5] stands for this setting: read-out: inhibition of plasma DPP-IV activity after 6 h, male ICR mice, 10 mg/kg orally, 6 h after administration, relative to control group.
[6] abbreviates: male SD rats, 10 mg/kg orally, 12 h after administration, relative to control group, read-out: inhibition of plasma DPP-IV activity after 12 h.
The mark [7] stands for this setting: read-out: inhibition of plasma DPP-IV activity after 6 h, male SD rats, 10 mg/kg orally, 6 h after administration, relative to control group.
[8] abbreviates: read-out: inhibition of plasma DPP-IV activity after 6 h.
Setting [9] is: read-out: inhibition of plasma DPP-IV activity after 12 h.

Each structure is given as a SMILES string. Like-named read-outs stand apart in the source and are kept apart here.

T1 sequence (P27487 39-766 limits assumed): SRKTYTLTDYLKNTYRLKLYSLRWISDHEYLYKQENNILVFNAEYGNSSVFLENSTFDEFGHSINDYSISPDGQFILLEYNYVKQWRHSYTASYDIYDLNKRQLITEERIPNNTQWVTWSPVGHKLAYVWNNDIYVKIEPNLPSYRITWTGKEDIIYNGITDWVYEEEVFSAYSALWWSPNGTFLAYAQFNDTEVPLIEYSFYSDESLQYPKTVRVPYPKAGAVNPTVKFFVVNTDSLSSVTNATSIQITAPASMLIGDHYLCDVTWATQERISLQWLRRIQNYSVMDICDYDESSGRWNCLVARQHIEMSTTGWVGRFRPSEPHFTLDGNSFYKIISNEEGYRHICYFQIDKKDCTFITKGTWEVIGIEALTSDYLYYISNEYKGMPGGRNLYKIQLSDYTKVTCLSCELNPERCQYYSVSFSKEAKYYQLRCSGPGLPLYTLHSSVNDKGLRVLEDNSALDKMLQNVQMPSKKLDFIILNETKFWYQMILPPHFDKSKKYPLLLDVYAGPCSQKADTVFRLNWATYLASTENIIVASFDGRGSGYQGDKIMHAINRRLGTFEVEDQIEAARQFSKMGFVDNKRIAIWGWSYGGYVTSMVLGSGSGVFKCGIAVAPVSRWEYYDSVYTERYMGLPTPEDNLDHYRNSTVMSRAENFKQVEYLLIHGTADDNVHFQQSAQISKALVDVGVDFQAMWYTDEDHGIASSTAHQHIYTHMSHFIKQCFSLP
T2 sequence (P28843 37-760 limits assumed): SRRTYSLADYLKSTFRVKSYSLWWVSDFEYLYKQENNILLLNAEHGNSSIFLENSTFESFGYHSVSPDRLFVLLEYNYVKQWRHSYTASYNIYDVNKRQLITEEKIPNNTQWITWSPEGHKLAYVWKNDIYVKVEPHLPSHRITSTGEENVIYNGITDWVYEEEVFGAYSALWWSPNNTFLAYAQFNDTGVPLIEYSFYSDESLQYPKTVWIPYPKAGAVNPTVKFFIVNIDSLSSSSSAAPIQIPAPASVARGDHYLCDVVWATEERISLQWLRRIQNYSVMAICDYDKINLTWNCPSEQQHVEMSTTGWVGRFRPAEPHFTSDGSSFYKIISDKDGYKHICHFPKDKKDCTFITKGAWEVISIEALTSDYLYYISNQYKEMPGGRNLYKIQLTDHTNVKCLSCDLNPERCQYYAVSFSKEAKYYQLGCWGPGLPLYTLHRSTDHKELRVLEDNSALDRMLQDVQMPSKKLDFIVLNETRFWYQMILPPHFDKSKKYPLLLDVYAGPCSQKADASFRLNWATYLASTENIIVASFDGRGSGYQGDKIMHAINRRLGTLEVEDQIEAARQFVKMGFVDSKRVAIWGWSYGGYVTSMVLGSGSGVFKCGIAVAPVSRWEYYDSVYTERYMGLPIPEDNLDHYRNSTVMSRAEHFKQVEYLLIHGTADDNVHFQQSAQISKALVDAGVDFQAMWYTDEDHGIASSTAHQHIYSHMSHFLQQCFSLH
T3 sequence (P14740 37-767 limits assumed): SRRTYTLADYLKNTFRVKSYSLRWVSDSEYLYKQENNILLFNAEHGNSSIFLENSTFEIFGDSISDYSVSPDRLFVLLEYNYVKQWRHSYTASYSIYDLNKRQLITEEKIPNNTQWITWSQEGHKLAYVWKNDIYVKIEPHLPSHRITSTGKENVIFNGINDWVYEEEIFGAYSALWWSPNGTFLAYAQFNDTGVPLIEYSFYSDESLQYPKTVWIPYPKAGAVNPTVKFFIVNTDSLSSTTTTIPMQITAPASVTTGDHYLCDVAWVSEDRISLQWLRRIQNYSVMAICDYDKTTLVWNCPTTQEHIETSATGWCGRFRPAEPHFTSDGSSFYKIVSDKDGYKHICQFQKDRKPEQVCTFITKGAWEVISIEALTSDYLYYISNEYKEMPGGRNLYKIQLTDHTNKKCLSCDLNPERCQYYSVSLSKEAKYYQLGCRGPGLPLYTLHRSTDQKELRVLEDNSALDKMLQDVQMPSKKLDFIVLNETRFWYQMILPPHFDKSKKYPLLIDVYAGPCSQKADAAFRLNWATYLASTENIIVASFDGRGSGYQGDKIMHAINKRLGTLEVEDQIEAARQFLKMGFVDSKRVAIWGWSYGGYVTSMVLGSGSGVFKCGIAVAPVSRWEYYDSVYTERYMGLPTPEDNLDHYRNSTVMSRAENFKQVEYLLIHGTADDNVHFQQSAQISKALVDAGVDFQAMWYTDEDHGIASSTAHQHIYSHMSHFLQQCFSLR

As for `CS(=O)(=O)N1CCC(NCC(=O)N2C[C@@H](F)C[C@H]2C#N)CC1` [Example 1, (2S,4S)-4-fluoro-1-({[1-(methanesulfonyl)piperidin-4-yl]amino}acetyl)pyrrolidine-2-carbonitrile monofumarate], the IC50 at DPP-IV (setting [3]) worked out at 4.2 nM. Also, the inhibition at 10 mg/kg on plasma DPP-IV [1] (setting [4]) was 59%; on plasma DPP-IV [1] (setting [5]) it was 74%.

As to `N#C[C@@H]1C[C@H](F)CN1C(=O)CNC1CCN(C=O)CC1` [Example 19], at DPP-IV (setting [3]), the IC50 was 4.2 nM. For the same compound, the inhibition at 10 mg/kg is 61% at plasma DPP-IV [1] (setting [4]) and 72% at plasma DPP-IV [1] (setting [5]).

Regarding `N#C[C@@H]1C[C@H](F)CN1C(=O)CNC1CCN(C(=O)CO)CC1` [Example 21], the IC50 at DPP-IV (setting [3]) was 6 nM. For the same compound, the inhibition at 10 mg/kg on plasma DPP-IV [1] (setting [4]) stood at 71%; at plasma DPP-IV [1] (setting [5]), 78%.

Take `N#C[C@@H]1C[C@H](F)CN1C(=O)CNC1CCN(C(=O)N2CCOCC2)CC1` [Example 28]: the IC50 on DPP-IV (setting [3]) was 5.1 nM.

For the compound `CC1(NCC(=O)N2C[C@@H](F)C[C@H]2C#N)CCN(C(=O)CO)CC1` [Example 34], on DPP-IV (setting [3]), the IC50 was found to be 8.2 nM. The inhibition at 10 mg/kg worked out at 79% on plasma DPP-IV [1] (setting [4]), 85% at plasma DPP-IV [1] (setting [5]), 94% on plasma DPP-IV [2] (setting [6]) and 96% on plasma DPP-IV [2] (setting [7]).

Take `CC1(NCC(=O)N2C[C@@H](F)C[C@H]2C#N)CCN(C=O)CC1` [Example 36]: the half-maximal inhibitory concentration (IC50) on DPP-IV (setting [3]) was determined as 7.5 nM. In addition, the inhibition at 10 mg/kg on plasma DPP-IV [1] (setting [4]) came to 78%; at plasma DPP-IV [1] (setting [5]), 81%; on plasma DPP-IV [2] (setting [6]), 86%; on plasma DPP-IV [2] (setting [7]), 92%.

`CC1(NCC(=O)N2C[C@@H](F)C[C@H]2C#N)CCN(C(=O)CF)CC1` [Example 41] displayed an IC50 against DPP-IV of 5.9 nM. Also, the inhibition at 10 mg/kg on plasma DPP-IV [1] (setting [8]) is 83%; at plasma DPP-IV [1] (setting [9]), 78%; on plasma DPP-IV [2] (setting [8]) it was 93%; on plasma DPP-IV [2] (setting [9]), 89%.

Turning to `CS(=O)(=O)N1CCC(NCC(=O)N2CCC[C@H]2C#N)CC1` [compound 1, reference compound], the inhibition at 10 mg/kg stood at 38% at plasma DPP-IV [2] (setting [6]) and 65% at plasma DPP-IV [2] (setting [7]).

Take `COCC(=O)N1CCC(NCC(=O)N2CCC[C@H]2C#N)CC1` [compound 2, reference compound]: the inhibition at 10 mg/kg on plasma DPP-IV [2] (setting [6]) turned out to be 55%; at plasma DPP-IV [2] (setting [7]) it was 77%.

Regarding `COC(C)S(=O)(=O)N1CCC(C)(NCC(=O)N2C[C@@H](F)C[C@H]2C#N)CC1` (stereo partly shown) [compound 3, reference compound], the inhibition at 10 mg/kg amounted to 45% at plasma DPP-IV [2] (setting [6]) and 80% on plasma DPP-IV [2] (setting [7]).
